Data published in patent US20240182910A1, “DRUG-REGULATABLE TRANSCRIPTION FACTORS” (Senti Biosciences, Inc., priority 2021, published 2024).

Key:
[1] = molecular target: AlcR (Emericella nidulans, UniProt P21228); set-up: key: A, activation; DA, deactivation; DR, derepression; conditions: AIR; PAIR (OalcA-PhCMVmin); cited from earlier work
[2] = molecular target: T1, mifepristone-inducible transcription factor (Homo sapiens, UniProt P06401, V660L); test: Transduction assay: mCherry reporter expression, mifepristone-inducible transcription factor; type: cell-based; conditions: U87-MG reporter cells, cell group E; 0, 1, 100, 1000 or 10000 nM mifepristone; FIG. 4
T1 construct: expressed in transfected cells; host or cells: U87-MG reporter cells, lentiviral transduction
T1 sequence (P06401 with tags, fused parts or gaps V660L): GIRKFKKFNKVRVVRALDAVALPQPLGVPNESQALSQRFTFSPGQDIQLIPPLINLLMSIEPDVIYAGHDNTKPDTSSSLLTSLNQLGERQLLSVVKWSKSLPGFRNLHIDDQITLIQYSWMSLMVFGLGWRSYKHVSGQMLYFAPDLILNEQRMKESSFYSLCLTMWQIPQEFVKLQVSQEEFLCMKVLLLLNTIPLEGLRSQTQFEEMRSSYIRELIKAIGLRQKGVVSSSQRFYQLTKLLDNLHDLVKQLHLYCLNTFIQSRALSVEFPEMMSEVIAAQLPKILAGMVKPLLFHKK
Protocol: On day 1, reporter cells were transduced with lentivirus encoding the mifepristone-inducible transcription factor construct.
To assay for mifepristone-regulated transcription modulation, cell group E was thawed and four days later, the cells were split into a 48-well plate and treated with 0 nM, 1 nM, 100 nM, 1000 nM, or 10000 nM mifepristone. Six days after the cells were thawed, cells were trypsinized and then resuspended in FACS buffer plus Sytox Red (fluoresces in APC channel) viability dye. Cell mCherry geometric mean fluorescent intensity (gMFI) was measured at each concentration and normalized to no drug as shown in FIG. 4.

AlcR, sequence (P21228 whole entry): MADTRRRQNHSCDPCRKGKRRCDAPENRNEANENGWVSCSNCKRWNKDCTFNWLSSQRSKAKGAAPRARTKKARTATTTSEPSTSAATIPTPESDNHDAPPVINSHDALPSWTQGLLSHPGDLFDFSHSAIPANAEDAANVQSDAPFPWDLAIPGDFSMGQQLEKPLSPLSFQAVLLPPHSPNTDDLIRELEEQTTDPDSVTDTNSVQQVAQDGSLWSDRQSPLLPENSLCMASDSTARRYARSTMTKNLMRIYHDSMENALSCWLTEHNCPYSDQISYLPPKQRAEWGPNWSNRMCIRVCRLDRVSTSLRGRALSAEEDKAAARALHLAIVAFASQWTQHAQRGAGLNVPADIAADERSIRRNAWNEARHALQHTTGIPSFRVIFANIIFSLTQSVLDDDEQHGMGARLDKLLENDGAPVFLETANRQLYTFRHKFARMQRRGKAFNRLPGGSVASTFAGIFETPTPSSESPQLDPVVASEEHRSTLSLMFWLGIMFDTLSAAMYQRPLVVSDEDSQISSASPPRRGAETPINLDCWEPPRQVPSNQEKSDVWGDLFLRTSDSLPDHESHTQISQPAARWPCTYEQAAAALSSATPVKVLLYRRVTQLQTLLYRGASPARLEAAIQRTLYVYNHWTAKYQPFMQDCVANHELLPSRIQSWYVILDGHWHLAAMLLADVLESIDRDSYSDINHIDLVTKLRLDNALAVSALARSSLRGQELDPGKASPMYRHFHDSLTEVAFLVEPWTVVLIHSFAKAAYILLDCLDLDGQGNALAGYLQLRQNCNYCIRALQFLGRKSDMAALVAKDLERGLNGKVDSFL

Row | Structure (SMILES) | Response to inducer: T (transgene transcription) [1] | mCherry expression (mCherry gMFI normalized to no drug) [2]
1 | CC=O [Acetaldehyde] | A | –
2 | CC#C[C@]1(O)CC[C@H]2[C@@H]3CCC4=CC(=O)CCC4=C3[C@@H](c3ccc(N(C)C)cc3)C[C@@]21C [mifepristone] | – | induced mCherry expression in the presence of drug in a concentration-dependent manner
